Assays:
SF3b complexes = biological target: T1, SF3b complexes (Homo sapiens, UniProt O75533+Q7RTV0); test: Scintillation proximity assay (SPA) with [3H]-labelled pladienolide probe; format: binding; settings: wt SF3B1, read-out: SPA (wt SF3B1 cells) IC50
T1 construct: endogenous in cells
Experimental: Batch immobilization of anti-SF3B1 antibody (MBL) to anti-mouse PVT SPA scintillation beads (PerkinElmer) was prepared as follows: for every 2.5 mg of nuclear extracts, 5 μg anti-SF3B1 antibody and 1.5 mg of beads were mixed in 150 μl PBS. The antibody-bead mixture was incubated for 30 min at RT and centrifuged at 18,000 g for 5 min. 150 μl PBS was used to resuspend every 1.5 mg antibody-bead mixture. The beads were suspended and added to the prepared nuclear extracts. The slurry was incubated for 2 h at 4° C. with gentle mixing. The beads were then collected by centrifuging at 18,000 g for 5 min, and washed twice with PBS+0.1% Triton X-100. After a final centrifugation step, every 1.5 mg of beads was suspended with 150 μl of PBS. The SF3b complexes were tested for [^3H]-labelled pladienolide probe binding ([^3H]-PB), synthesized as previously described (Kotake et al., 2007). 100 μL binding reactions were prepared with 50 μl bead slurry and by adding varying concentrations of PB or PB—OH, and after 30 min pre-incubation, 2.5 nM [^3H]—PB was added. The mixture was incubated for 30 min, and luminescence signals were read using a MicroBeta2 Plate Counter (PerkinElmer). Prism 6 (Graphpad) was used for non-linear regression curve fitting of the data.

[1] = test system: WiDr-R cells (colon cancer cells; chemically-induced SF3B1 R1074H mutant); test: Cell viability assay (CellTiter-Glo, 72 hr), resistant WiDr-R cells (counter-screen); format: cell-based; settings: WiDr-R cells (SF3B1 R1074H mutation, resistant); read-out: WiDr-R GI50
Method in brief: (§1)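 Cells at 2000/well were exposed to 9 compound concentrations (0.1% DMSO) in duplicate or triplicate for 72 hr at 37 °C. ATP was read by CellTiter-Glo against a time-zero plate and DMSO control growth. Percent growth/viability was plotted against concentration to give Emax; negative values indicate lethality.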

[2] = test system: WiDr cells (colon cancer cells; wildtype SF3B1); test: Cell viability assay (CellTiter-Glo, 72 hr), WiDr cells; format: cell-based; settings: Homo sapiens; WiDr cells (wildtype SF3B1); read-out: WiDr GI50
Method in brief: as §1

[3] = test system: Panc 05.04 cells (pancreatic cancer cells; Q699H and K700E mutations in SF3B1); test: Cell viability assay (CellTiter-Glo, 72 hr), Panc 05.04 cells; format: cell-based; settings: Panc 05.04 cells (mutant SF3B1); for Emax: maximum achievable response in tested dose range, negative value = cellular lethality, read-out: Panc 05.04 (mt SF3B1 cells) Emax (%); for GI50: read-out: Panc 05.04 (mt SF3B1 cells), GI50
Method in brief: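 Panc 05.04 cells treated 72 hr at 37 °C with 9 compound concentrations (0.1% DMSO), duplicate or triplicate. ATP read by CellTiter-Glo; growth inhibition/viability calculated against a time-zero plate and DMSO control growth. Emax is the maximal response over the tested range, negative values meaning lethality.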

SMILES	IC50 (SF3b complexes)	GI50 [1]	GI50 [2]	Emax [3]	GI50 [3]
C/C(=C\C=C\[C@@H](C)COC(=O)N1CCCC1)[C@H]1OC(=O)C[C@H](O)CC[C@@](C)(O)[C@@H](OC(=O)N2CCN(C3CCCCCC3)CC2)/C=C/[C@@H]1C	2.83 nM	> 1000 nM	2.54 nM	-87.3%	1.66 nM
C/C(=C\C=C\[C@@H](C)COC(=O)N1CC[C@@H](C(=O)O)C1)[C@H]1OC(=O)C[C@H](O)CC[C@@](C)(O)[C@@H](OC(=O)N2CCN(C3CCCCCC3)CC2)/C=C/[C@@H]1C	2.25 nM	> 1000 nM	692 nM	-58.3%	108 nM
C/C(=C\C=C\[C@H](C)c1ncccn1)[C@H]1OC(=O)C[C@H](O)CC[C@@](C)(O)[C@@H](OC(=O)N2CCN(C3CCCCCC3)CC2)/C=C/[C@@H]1C	6.57 nM	> 1000 nM	38.1 nM	-93.1%	34.5 nM
C/C(=C\C=C\[C@H](C)c1cccnc1)[C@H]1OC(=O)C[C@H](O)CC[C@@](C)(O)[C@@H](OC(=O)N2CCN(C3CCCCCC3)CC2)/C=C/[C@@H]1C	2.56 nM	> 1000 nM	29.4 nM	-94.2%	20.4 nM
C/C(=C\C=C\[C@@H](C)COC(=O)N1CCCC1)[C@H]1OC(=O)CCCCC[C@@H](NC(=O)N2CCN(C)CC2)/C=C/[C@@H]1C	14.4 nM	> 1000 nM	18.5 nM	-93.6%	19 nM
C/C(=C\C=C\C(C)c1cc(C)ccn1)[C@H]1OC(=O)C[C@H](O)CC[C@@](C)(O)[C@@H](OC(=O)N2CCN(C3CCCCCC3)CC2)/C=C/[C@@H]1C (stereo partly shown)	6.79 nM	> 1000 nM	58.7 nM	-92.4%	59.9 nM
CC(=O)O[C@H]1/C=C/[C@H](C)[C@@H](/C(C)=C/C=C/[C@@H](C)COC(=O)N2CCN(C)CC2)OC(=O)C[C@H](O)CC[C@@]1(C)O	236 nM	> 1000 nM	106 nM	-88.8%	203 nM
C/C(=C\C=C\[C@@H](C)CCC(=O)N1CCCC1)[C@H]1OC(=O)C[C@H](O)CC[C@@](C)(O)[C@@H](OC(=O)N2CCN(C3CCCCCC3)CC2)/C=C/[C@@H]1C	5.11 nM	> 1000 nM	12.7 nM	-86.9%	3.25 nM
C/C(=C\C=C\[C@@H](C)c1ccccn1)[C@H]1OC(=O)C[C@H](O)CC[C@@](C)(O)[C@@H](OC(=O)N2CCCN(C)CC2)/C=C/[C@@H]1C	6.87 nM	> 1000 nM	33.1 nM	-23.1%	84.9 nM
C/C(=C\C=C\C(C)c1ccncc1)[C@H]1OC(=O)C[C@H](O)CC[C@@](C)(O)[C@@H](OC(=O)N2CCN(C3CCCCCC3)CC2)/C=C/[C@@H]1C (stereo partly shown)	2.74 nM	> 1000 nM	14 nM	-95.1%	6.63 nM
C/C(=C\C=C\[C@@H](C)COC(=O)N1CCCC1)[C@H]1OC(=O)C[C@@H](O)CC[C@](C)(O)[C@@H](OC(=O)N2CCN(C)CC2)/C=C/[C@@H]1C	47.8 nM	> 1000 nM	15.2 nM	-90.2%	6.55 nM
CC(=O)O[C@H]1/C=C/[C@H](C)[C@@H](/C(C)=C/C=C/[C@H](C)c2ccccn2)OC(=O)C[C@H](O)CC[C@@]1(C)O	235 nM	> 10000 nM	205 nM	1.96%	546 nM
C/C(=C\C=C\[C@H](C)COC(=O)N1CCCC1)[C@H]1OC(=O)C[C@H](O)CC[C@@](C)(O)[C@@H](OC(=O)N2CCN(C3CCCCCC3)CC2)/C=C/[C@@H]1C	11.6 nM	862 nM	11.8 nM	-93.5%	11.7 nM
CCN(CC)C(=O)OC[C@H](C)/C=C/C=C(\C)[C@H]1OC(=O)C[C@H](O)CC[C@@](C)(O)[C@@H](OC(C)=O)/C=C/[C@@H]1C	2.4 nM	> 10000 nM	21.2 nM	-92.2%	25 nM
C/C(=C\C=C\[C@@H](C)COC(=O)N1CCC[C@H]1CO)[C@H]1OC(=O)CCCC[C@@](C)(O)[C@@H](OC(=O)N2CCN(C)CC2)/C=C/[C@@H]1C	2.54 nM	> 1000 nM	1.74 nM	-72.3%	2.07 nM
C/C(=C\C=C\[C@@H](C)c1ccccn1)[C@H]1OC(=O)C[C@H](O)CC[C@@](C)(O)[C@@H](OC(=O)N2CCCN(C3CCCCCC3)CC2)/C=C/[C@@H]1C	7.32 nM	> 1000 nM	74.9 nM	-12.7%	104 nM
C/C(=C\C=C\[C@@H](C)c1ncccn1)[C@H]1OC(=O)C[C@H](O)CC[C@@](C)(O)[C@@H](OC(=O)N2CCN(C3CCCCCC3)CC2)/C=C/[C@@H]1C	8.1 nM	> 1000 nM	33.6 nM	-92.9%	29.5 nM
C/C(=C\C=C\[C@@H](C)COC(=O)N1CCCC1)[C@H]1OC(=O)C[C@H](O)CC[C@H](C)[C@@H](OC(=O)N2CCN(C)CC2)/C=C/[C@@H]1C	2.96 nM	> 1000 nM	3.81 nM	-86%	1.36 nM
C/C(=C\C=C\C(C)c1cccnc1)[C@H]1OC(=O)C[C@H](O)CC[C@@](C)(O)[C@@H](OC(=O)N2CCN(C3CCCCCC3)CC2)/C=C/[C@@H]1C (stereo partly shown)	2.51 nM	> 1000 nM	19.7 nM	-95.4%	10.4 nM
C/C(=C\C=C\[C@@H](C)CNC(=O)N1CCCC1)[C@H]1OC(=O)C[C@H](O)CC[C@@](C)(O)[C@@H](OC(=O)N2CCN(C)CC2)/C=C/[C@@H]1C	7.62 nM	> 1000 nM	76.6 nM	-90.4%	54.1 nM
CC[C@H](OC(C)=O)[C@@H](C)[C@H]1O[C@@H]1C[C@@](C)(O)/C=C/C=C(\C)[C@H]1OC(=O)C[C@H](O)CC[C@@](C)(O)[C@@H](OC(=O)N2CCN(C3CCCCCC3)CC2)/C=C/[C@@H]1C	5.85 nM	132 nM	2 nM	-78.6%	2.41 nM
C/C(=C\C=C\[C@@H](C)Cn1cc(C2CC2)nn1)[C@H]1OC(=O)C[C@H](O)CC[C@@](C)(O)[C@@H](OC(=O)N2CCN(C3CCCCCC3)CC2)/C=C/[C@@H]1C	14.1 nM	> 1000 nM	51.8 nM	-94.5%	38.6 nM
C/C(=C\C=C\[C@@H](C)CCC(=O)N1CCCC1)[C@H]1OC(=O)C[C@H](O)CC[C@@](C)(O)[C@@H](OC(=O)N2CCN(C)CC2)/C=C/[C@@H]1C	4.36 nM	> 1000 nM	26.4 nM	-87.3%	27.3 nM
C/C(=C\C=C\C(C)c1ncccn1)[C@H]1OC(=O)C[C@H](O)CC[C@@](C)(O)[C@@H](OC(=O)N2CCN(C)CC2)/C=C/[C@@H]1C (stereo partly shown)	38.4 nM	> 1000 nM	60.1 nM	-22.2%	155 nM
C/C(=C\C=C\[C@@H](C)c1cccnc1)[C@H]1OC(=O)C[C@H](O)CC[C@@](C)(O)[C@@H](OC(=O)N2CCN(C3CCCCCC3)CC2)/C=C/[C@@H]1C	2.34 nM	> 1000 nM	13.2 nM	-95.6%	11 nM
CC(=O)O[C@H]1/C=C/[C@H](C)[C@@H](/C(C)=C/C=C/[C@@H](C)COC(=O)N2CCC2)OC(=O)C[C@H](O)CC[C@@]1(C)O	10.7 nM	> 10000 nM	138 nM	-91.8%	44.7 nM
C/C(=C\C=C\[C@@H](C)COC(=O)N1CCCC1)[C@H]1OC(=O)C[C@H](O)CC[C@](C)(O)[C@@H](OC(=O)N2CCN(C)CC2)/C=C/[C@@H]1C	5.69 nM	> 1000 nM	7.12 nM	-83.7%	3.14 nM
C/C(=C\C=C\[C@@H](C)COC(=O)N1CCCC1)[C@H]1OC(=O)CCCC[C@@](C)(O)[C@@H](OC(=O)N2CCN(C)CC2)/C=C/[C@@H]1C	1.67 nM	> 1000 nM	4.92 nM	-91.4%	2.38 nM
C/C(=C\C=C\[C@@H](C)COC(=O)N1CC[C@@H](O)C1)[C@H]1OC(=O)CCCCC[C@@H](OC(=O)N2CCN(C3CCCCCC3)CC2)/C=C/[C@@H]1C	40.2 nM	> 1000 nM	45.5 nM	-81.6%	35.2 nM

— patent US11926619B2, “Certain pladienolide compounds and methods of use” (EISAI R&D MANAGEMENT CO., LTD., priority 2018, dated 2024)
